Source: patent US8273794B2, “Compounds and compositions for delivering active agents” (Emisphere Technologies, Inc., priority 2004, dated 2012)
Several values for one entry are separate records, joined by “and”; a condition that tells them apart may be missing. Identical values can stand only once. Each block holds one compound with its values, some of them ahead of it.

Assays:
[1] = Human recombinant insulin oral delivery in rats, whole blood glucose; format: in vivo, Sprague-Dawley rats; conditions: oral (liquid dose), delivery agent compound dose 200 mg/kg, insulin dose 0.5 mg/kg
Experimental: (§1) Insulin (human recombinant) was obtained from ICN Biomedicals (Aurora, Ohio) as a bulk powder. To prepare stock solutions, insulin was dissolved in deionized water (pH˜6.5) to obtain a concentration of 15 mg/ml. Stock solutions were kept frozen at −20° C. in 1.0-ml aliquots until used. For dosing solutions, the delivery agent compound was dissolved in deionized water to obtain a final concentration of 200 mg/ml. The free acid form of delivery agent was converted to the sodium salt by adding one equivalent of sodium hydroxide. Solutions were vortexed, sonicated, and heated, and if necessary, additional sodium hydroxide was added in μl quantities to achieve uniform solubility. Solutions were adjusted to a pH of 3.5-8.5 by the addition of either hydrochloric acid or sodium hydroxide. Insulin stock (typically 66.7 μl) was then added to the delivery agent solution to obtain a final concentration of 0.5 mg/ml. After solubilization and drug addition, solutions were brought to final volume by the addition of deionized water.
(§2) Insulin was administered to male, Sprague-Dawley rats either alone or in combination with an Emisphere delivery agent by oral gavage (PO). Typically, rats were fasted for 18-24 hours prior to dosing. For dosing, a Rusch 8 French catheter was cut to 11 cm in length and adapted to fit a 1-ml syringe. The syringe was filled with dosing solution and the catheter was wiped dry of excess solution. The catheter was inserted into the rat mouth and fed down the esophagus (10.0 cm). The dosing solution was delivered by pressing the syringe plunger while holding the rat in an upright position.
In order to determine the pharmacodynamic response, a hand-held glucometer (OneTouch Ultra, LifeScan® (Johnson & Johnson, New Brunswick, N.J.)) was used to measure whole blood glucose after administration of insulin or insulin and delivery agent. Samples were collected either from the retroorbital sinus (see Sample collection and handling: Insulin) or from the tail artery (i.e. tail clip). For tail clipping, the tip of the tail was severed approximately 5 mm from the tip using a scalpel blade. After discarding the first drop of blood, a small sample (˜5-10 μl) was touched to the glucometer test strip (OneTouch Ultra, LifeScan) and a blood glucose reading was generated by the meter. For each subsequent sampling time point, the clot formed at the tip of the tail was broken up and a fresh sample was collected. Typically, samples were collected prior to dosing (time 0) and at 15, 30, 45, and 60 minutes after dosing.

[2] = Oral and intracolonic heparin delivery in rats, APTT; format: in vivo, Sprague-Dawley rats
Experimental: (§3) Oral gavage (PO) and/or intracolonic (IC) dosing solutions containing a delivery agent compound and heparin sodium USP in 25% aqueous propylene glycol were prepared. The sodium salt of the compound was used. Typically, delivery agent compound and heparin (about 166-182 IU/mg) were mixed by vortex as dry powders. This dry mixture was dissolved in 25% v/v aqueous propylene glycol, vortexed and placed in a sonicator (about 37° C.). The pH was adjusted to about 7 (6.5 to 8.5) with aqueous NaOH (2N). The dosing solution was sonicated to produce a clear solution. The final volume was adjusted to 3.0 mL. The final delivery agent compound dose, heparin dose and volume dose amounts are listed below in Table 6.
(§4) The typical dosing and sampling protocols were as follows. Male Sprague-Dawley rats weighing between 275-350 g were fasted for 24 hours and were anesthetized with ketamine hydrochloride (88 mg/kg) intramuscularly immediately prior to dosing. A dosing group of five rats was administered one of the dosing solutions. […] Solution was administered by pressing the syringe plunger. […] The dosing catheter was inserted into the colon through the anus until the tube was no longer visible. The dosing solution was injected slowly into the colon.
Citrated blood samples were collected by cardiac puncture following the administration of ketamine (88 mg/kg), typically at time—0.25, 0.5, 1.0 and 1.5 hours. Heparin activity was determined by utilizing the activated partial thromboplastin time (APTT) according to the method of Henry, J. B., Clinical Diagnosis and Management by Laboratory Methods, Philadelphia, Pa., W.B. Saunders (1979). Previous studied indicated baseline values of about 20 sec. Results from the five rats in each group were averaged for each time point. The maximum is reported below in Table 6.

[3] = Human recombinant insulin oral/intracolonic delivery in rats, serum insulin Cmax; format: in vivo, Sprague-Dawley rats
Experimental: as §1, §2
During blood sampling, rats were exposed briefly (˜10 sec) to carbon dioxide until prostrate, immediately prior to each sampling time point. For blood sampling, a 77-mm capillary tube was inserted into the retroorbital sinus. Typically, blood samples were collected prior to dosing (time 0) and at 15, 30, 45, and 60 minutes after dosing. Samples were collected into CAPIJECT® tubes (Terumo Corporation, Tokyo, Japan) containing a clot activator (red top, serum separator tubes). Samples were allowed to clot for ˜20 min at 4° C. After clotting, samples were centrifuged at 10,000 rpm for 4 minutes at 6° C. in order to separate the serum. Serum was collected into eppendorf tubes and frozen at −20° C. until assayed.

[4] = Intracolonic heparin delivery in rats, antifactor Xa; format: in vivo, Sprague-Dawley rats; conditions: IC, volume 1 ml/kg, heparin dose 25 mg/kg
Experimental: as §3, §4

[5] = Human zinc insulin oral delivery in rats, blood glucose % change; format: in vivo, Sprague-Dawley rats; conditions: delivery agent compound dose 200 mg/kg, human zinc insulin dose 0.5 mg/kg
[6] = PYY[3-36] liquid oral delivery in rats, serum PYY by radioimmunoassay; parameters: species or system Sprague-Dawley rats; conditions: rat, in vivo
Experimental: Oral gavage (PO) dosing solutions of delivery agent compound and Peptide YY residues 3-36 (PYY[3-36]) (available from Bachem California Inc. of Torrance, Calif.) in deionized water were prepared as follows.
PYY [3-36] stock solution (80 mg/ml) was prepared with deionized water. Oral dosing compositions containing 200 mg/kg of delivery agent compound and 0.3 mg/kg of PYY in aqueous solution were prepared. A solution of the compound 23 is made with one equivalent to sodium hydroxide to convert the free acid delivery agent to its sodium salt.
Male Sprague-Dawley rats weighing between 240-320 g were fasted up to a maximum 24 hours before the experiments and administered ketamine (44 mg/kg) and thorazine (1.5 mg/kg) by intramuscular injection before the test article administration. Afterwards, the anesthetized animals were administered the test article by oral gavage.
Blood samples were collected serially from the tail artery, or by cardiac puncture, typically at time=0, 15, 30, 45, 60 and 90 minutes. Serum PYY concentrations were quantified using a PYY[3-36] radioimmunoassay (Catalog #RK-059-02 from Phoenix Pharmaceuticals, Inc., Belmont, Calif.). Results from the animals in each group were averaged for each time point. The maximum of these averages (i.e., the mean peak serum PYY[3-36] concentration ±standard deviation (SD)) is reported below in Table 2.

[7] = IC, volume 1 ml/kg, compound dose 50 mg/kg, heparin dose 25 mg/kg
[8] = oral (liquid dose), delivery agent compound dose 100 mg/kg, insulin dose 1 mg/kg

melting point: 62 to 63 °C
Compound: CC(C)N(C(=O)CCCCCC(=O)O)c1ccccc1 [Compound 23, 7-[isopropyl(phenyl)amino]-7-oxoheptanoic acid]

Compound: CC(C)N(C(=O)CCCCC(=O)O)c1ccccc1 [Compound 24]
Maximum % drop in glucose from control ± SD [1]: −14.73 ± 17.64%

Compound: CC(CC(=O)O)CC(=O)N(c1ccccc1)C(C)C (centres unmarked) [Compound 25]
Maximum % drop in glucose from control ± SD [1]: −14.81 ± 12.99%

Compound: CCN(C(=O)CC(C)CC(=O)O)c1ccccc1 (centres unmarked) [Compound 26]
Maximum % drop in glucose from control ± SD [1]: −25.93 ± 14.86%

Compound: CN(C(=O)CCCCCC(=O)O)c1ccccc1 [Compound 27]
Maximum % drop in glucose from control ± SD [1]: −25.40 ± 30.61%

Compound: CC(CC(=O)O)CC(=O)N(C)c1ccccc1 (centres unmarked) [Compound 28]
Maximum % drop in glucose from control ± SD [1]: −11.41 ± 18.92%

Compound: CN(C(=O)CCC(=O)O)c1ccc(Cl)cc1 [Compound 29]
Maximum % drop in glucose from control ± SD [1]: −29.25 ± 6.97%

melting point: 85 to 87 °C
Compound: O=C(O)CCCCCCCCC(=O)c1ccccc1O [Compound 114, 10-(2-Hydroxy-phenyl)-10-oxo-decanoic acid]
Mean Peak APTT (sec) ± SD [2, 7]: 42.90 ± 8.70 s

melting point: 141 to 142 °C
Compound: COc1ccc(C(=O)CCCC(=O)O)cc1 [Compound 116, 5-(4-Methoxy-phenyl)-5-oxo-pentanoic acid]

Cmax [3, 8]: Cmax = 81.16 ± 114.98 μIU/mL
Compound: CC(CC(=O)O)NC(=O)c1ccccc1O (centres unmarked) [Compound 140, 3-(2-Hydroxy-benzoylamino)-butyric acid]
Mean Peak APTT (sec) ± SD [2, 7]: 23.49 ± 6.12 s

Cmax [3, 8]: Cmax = 204.05 ± 60.88 μIU/mL
Compound: CC(CC(=O)O)NC(=O)c1cc(Br)cc(Br)c1O (centres unmarked) [Compound 141, 3-(3,5-Dibromo-2-hydroxy-benzoylamino)-butyric acid]
Mean Peak APTT (sec) ± SD [2, 7]: 52.40 ± 21.54 s

Cmax [3, 8]: Cmax = 118.16 ± 72.75 μIU/mL
Compound: CC(CC(=O)O)NC(=O)c1cc(Cl)cc(Cl)c1O (centres unmarked) [Compound 142, 3-(3,5-Dichloro-2-hydroxy-benzoylamino)-butyric acid]

Compound: CC(CC(=O)O)NC(=O)c1cc(I)cc(I)c1O (centres unmarked) [Compound 143, 3-(2-Hydroxy-3,5-diiodo-benzoylamino)-butyric acid]
Mean Peak APTT (sec) ± SD [2, 7]: 114.69 ± 121.62 s

Cmax ([3]; intracolonic, delivery agent compound dose 50 mg/kg, insulin dose 0.1 mg/kg): Cmax = 15.03 ± 7.80 μIU/mL | Cmax [3, 8]: Cmax = 3.92 ± 5.62 μIU/mL
Compound: CC(CC(=O)O)NC(=O)c1ccc(Cl)cc1O (centres unmarked) [Compound 145, 3-(4-Chloro-2-hydroxy-benzoylamino)-butyric acid]
Mean Peak APTT (sec) ± SD [2, 7]: 134.42 ± 99.03 s

Compound: CC(CC(=O)O)NC(=O)c1cc(C(C)C)cc(C(C)C)c1O (centres unmarked) [Compound 151, 3-(2-hydroxy-3,5-diisopropyl-benzoylamino)-butyric acid]
antifactor Xa (mean peak ± SD) ([4]; compound dose 25 mg/kg): 3.39 ± 3.07 | antifactor Xa (mean peak ± SD) ([4]; compound dose 50 mg/kg): 2.36 ± 1.27 | Mean Peak APTT (sec) ± SD ([2]; PO, volume 3 ml/kg, compound dose 300 mg/kg, heparin dose 100 mg/kg): 252.09 ± 107.13 s

Compound: O=C(O)Cc1ccccc1OCc1ccccc1 [Compound 152]
Glucose (% control) [5]: −29.3%

Compound: COc1ccc(C(=O)O)cc1OCc1ccccc1 [Compound 153]
Glucose (% control) [5]: −7.1%

Compound: Cc1cc(C(=O)O)cc(C)c1OCc1ccccc1 [Compound 154]
Glucose (% control) [5]: −7.9%

melting point: 110 to 112 °C
Compound: O=C(O)Cc1ccc(OCc2ccccc2)cc1 [Compound 158]

melting point: 67 to 70 °C | Cmax ([3]; oral (liquid dose), delivery agent compound dose 200 mg/kg, insulin dose 0.5 mg/kg): Cmax = 74 ± 7.5 μIU/mL
Compound: O=C(O)CCCCCOc1ccccc1C(=O)c1ccccc1O [Compound 160, 6-(2-(2-Hydroxybenzoyl)phenoxy)hexanoic acid]
Mean Peak APTT (sec) ± SD [2, 7]: 131 ± 154 s

Compound: COc1ccc(OCCCC(=O)O)c(C(=O)c2ccccc2O)c1 [Compound 165]
Maximum % drop in glucose from control ± SD [1]: −33.0%

Compound: O=C(O)CCCOc1ccccc1C(=O)c1ccccc1O [Compound 166, 4-(2-(2-Hydroxybenzoyl)phenoxy)butyric acid]
Maximum % drop in glucose from control ± SD [1]: −5.7%

Compound: Cc1ccc(OCCCC(=O)O)c(C(=O)c2ccccc2Cl)c1 [Compound 167, 4-(2-Chlorobenzoyl-4-methylphenoxy)butyric acid]
Maximum % drop in glucose from control ± SD [1]: −21.2% and −17.7% and −26.2% and −17.8% and −22.7%

melting point: 62 to 63 °C
Compound: O=C(O)CCCCCCCCCCOc1ccccc1OCc1ccccc1 [Compound 177, 11-(2-Benzyloxyphenoxy)undecanoic acid]

melting point: 127 to 128 °C
Compound: O=C(O)CCCCOc1ccc(OCc2ccccc2)cc1 [Compound 178, 5-(4-Benzyloxy-phenoxy)-pentanoic acid]

Compound: PYY[3-36]: Peptide YY residues 3-36, available from Bachem California Inc.; the active agent, dosed alone
PYY[3-36] detected in blood [6]: No significant PYY[3-36] was detected
